Source: US20150218212A1, “FLUORINATED EPOXYKETONE-BASED TETRAPEPTIDE COMPOUNDS AND USES THEREOF AS PROTEASOME INHIBITORS” (FLUORINOV PHARMA INC., priority 2012, published 2015)

What was measured:
Type in all cases: cell-based, human
UACC-62 = experiment: NCI screening panel, UACC-62 (Melanoma)
Method: (§1) Representative compounds of Formula I were screened using the National Cancer Institute (NCI) screening panel, which consists of a panel of human tumor cell lines, representing leukemia, melanoma, and cancers of the lung, colon, ovary, breast, prostate and renal system.
(§2) After 24 h, two plates of each cell line are fixed in situ with TCA, to represent a measurement of the cell population for each cell line at the time of drug addition (Tz). Experimental drugs are solubilised in dimethyl sulfoxide at 400-fold the desired final maximum test concentration and stored frozen prior to use. At the time of drug addition, an aliquot of frozen concentrate is thawed and diluted to twice the desired final maximum test concentration with complete medium containing 50 μg/mL gentamicin. Additional four, 10-fold or ½ log serial dilutions are made to provide a total of five drug concentrations plus control. Aliquots of 100 μl of these different drug dilutions are added to the appropriate microtiter wells already containing 100 μl of medium, resulting in the required final drug concentrations.
(§3) Following drug addition, the plates are incubated for an additional 48 h at 37° C., 5% CO2, 95% air, and 100% relative humidity. For adherent cells, the assay is terminated by the addition of cold TCA (trichloroacetic acid). Cells are fixed in situ by the gentle addition of 50 μl of cold 50% (w/v) TCA (final concentration, 10% TCA) and incubated for 60 minutes at 4° C. The supernatant is discarded, and the plates are washed five times with tap water and air dried. Sulforhodamine B (SRB) solution (100 μl) at 0.4% (w/v) in 1% acetic acid is added to each well, and plates are incubated for 10 minutes at room temperature. After staining, unbound dye is removed by washing five times with 1% acetic acid and the plates are air dried. Bound stain is subsequently solubilised with 10 mM trizma base, and the absorbance is read on an automated plate reader at a wavelength of 515 nm. For suspension cells, the methodology is the same except that the assay is terminated by fixing settled cells at the bottom of the wells by gently adding 50 μl of 80% TCA (final concentration, 16% TCA). Using the seven absorbance measurements [time zero, (Tz), control growth, (C), and test growth in the presence of drug at the five concentration levels (Ti)], the percentage growth is calculated at each of the drug concentrations levels. Percentage growth inhibition is calculated as: [(Ti−Tz)/(C−Tz)]×100 for concentrations for which Ti>/=Tz and [(Ti−Tz)/Tz]×100 for concentrations for which Ti<Tz.
(§4) Three dose response parameters are calculated for each experimental agent. Growth inhibition of 50% (GI50) is calculated from [(Ti−Tz)/(C−Tz)]×100=50, which is the drug concentration resulting in a 50% reduction in the net protein increase (as measured by SRB staining) in control cells during the drug incubation. The drug concentration resulting in total growth inhibition (TGI) is calculated from Ti=Tz. The LC50 (concentration of drug resulting in a 50% reduction in the measured protein at the end of the drug treatment as compared to that at the beginning) indicating a net loss of cells following treatment is calculated from [(Ti−Tz)/Tz]×100=−50. Values are calculated for each of these three parameters if the level of activity is reached. However, if the effect is not reached or is exceeded, the value for that parameter is expressed as greater or less than the maximum or minimum concentration tested.

HS 578T = experiment: NCI screening panel, HS 578T (Breast Cancer)
Method: as §1, §2, §3, §4

MCF7 = experiment: NCI screening panel, MCF7 (Breast Cancer)
Method: as §1, §2, §3, §4

MDA-MB-435 = experiment: NCI screening panel, MDA-MB-435 (Melanoma)
Method: as §1, §2, §3, §4

RPMI-8226 = experiment: NCI screening panel, RPMI-8226 (Leukemia)
Method: as §1, §2, §3, §4

SMILES	Log10GI50 (UACC-62)	Log10LC50 (UACC-62)	Log10TGI50 (UACC-62)	Log10GI50 (HS 578T)	Log10LC50 (HS 578T)	Log10TGI50 (HS 578T)	Log10GI50 (MCF7)	Log10LC50 (MCF7)	Log10TGI50 (MCF7)	Log10GI50 (MDA-MB-435)	Log10LC50 (MDA-MB-435)	Log10TGI50 (MDA-MB-435)	Log10GI50 (RPMI-8226)	Log10LC50 (RPMI-8226)	Log10TGI50 (RPMI-8226)
CC(C)C[C@H](NC(=O)[C@H](COC(F)F)NC(=O)CN1CCOCC1)C(=O)N[C@@H](COC(F)F)C(=O)N[C@@H](CC(C)C)C(=O)[C@@]1(C)CO1 [Example 1, (2S)—N-[(1S)-1-(difluoromethoxymethyl)-2-[[(1S)-3-methyl-1-[(2R)-2-methyloxirane-2-carbonyl]butyl]amino]-2-oxo-ethyl]-2-[[(2S)-3-(difluoromethoxy)-2-[(2-morpholinoacetyl)amino]propanoyl]amino]-4-methyl-pentanamide]	−7.60	>−4.00	−6.95	−7.72	>−4.00	−7.01	<−8.00	>−4.00	−5.18	−7.78	−7.07	−7.42	−7.56	>−4.00	−7.05
CC(C)C[C@H](NC(=O)[C@H](COC(F)F)NC(=O)CN1CCOCC1)C(=O)N[C@@H](Cc1ccccc1)C(=O)N[C@@H](CC(C)C)C(=O)[C@@]1(C)CO1 [Example 2, (2S)-N-[(1S)-1-benzyl-2-[[(1S)-3-methyl-1-[(2R)-2-methyloxirane-2-carbonyl]butyl]-amino]-2-oxo-ethyl]-2-[[(2S)-3-(difluoromethoxy)-2-[(2-morpholinoacetyl)amino]propanoyl]amino]-4-methyl-pentanamide]	−7.59	>−4.00	−6.82	−7.71		>−4.00	<-8.00	>−4.00	−4.94	−7.99	−7.14	−7.56	−7.98	>−4.00	−7.24
CC(C)C[C@H](NC(=O)[C@H](COC(F)F)NC(=O)CN1CCOCC1)C(=O)N[C@@H](Cc1ccccc1)C(=O)N[C@@H](Cc1ccccc1)C(=O)[C@@]1(C)CO1 [Example 3, (2S)-N-[(1S)-1-benzyl-2-[[(1S)-1-benzyl-2-[(2R)-2-methyloxiran-2-yl]-2-oxo-ethyl]amino]-2-oxo-ethyl]-2-[[(2S)-3-(difluoromethoxy)-2-[(2-morpholinoacetyl)-amino]propanoyl]amino]-4-methyl-pentan-amide]	−7.93	−6.13	−7.17	<−8.00	>−4.00	−7.01	<−8.00	>−4.00	−4.65	<−8.00	−7.34	−7.90	<−8.00	>−4.00	−7.48
CC(C)C[C@H](NC(=O)[C@H](COC(F)F)NC(=O)CN1CCOCC1)C(=O)N[C@@H](COC(F)F)C(=O)N[C@@H](Cc1ccccc1)C(=O)[C@@]1(C)CO1 [Example 4, (2S)-N-[(1S)-2-[[(1S)-1-benzyl-2-[(2R)-2-methyloxiran-2-yl]-2-oxo-ethyl]amino]-1-(difluoromethoxymethyl)-2-oxo-ethyl]-2-[[(2S)-3-(difluoromethoxy)-2-[(2-mor-pholinoacetyl)amino]propanoyl]amino]-4 methyl-pentanamide]	−7.39	−4.67	−6.59	−7.71	>−4.00	−7.01	<−8.00	>−4.00	−4.82	−7.79	−7.09	−7.44	−7.51	>−4.00	−6.54
CC(C)C[C@H](NC(=O)[C@H](COC(F)F)NC(=O)[C@H](COC(F)F)NC(=O)[C@H](CCc1ccccc1)NC(=O)CN1CCOCC1)C(=O)[C@@]1(C)CO1 [Example 7, (2S)-N-[(1S)-1-(difluoromethoxymethyl)-2-[[(1S)-1-(difluoromethoxymethyl)-2-[[(1S)-3-methyl-1-[(2R)-2-methyloxirane-2-carbo-nyl]butyl]amino]-2-oxo-ethyl]amino]-2-oxo-ethyl]-2-[(2-morpholinoacetyl)amino]-4-phenyl-butanamide]	−7.49	−4.37	−6.73	−7.70	>−4.00	−6.05	<−8.00	>−4.00	>−4.00	−7.83	−7.12	−7.47	−7.56	>−4.00	−7.04
CC(C)C[C@H](NC(=O)[C@H](Cc1ccccc1)NC(=O)[C@H](COC(F)F)NC(=O)[C@H](COC(F)F)NC(=O)CN1CCOCC1)C(=O)[C@@]1(C)CO1 [Example 11, (2S)-2-[[(2S)-3-(difluoromethoxy)-2-[[(2S)-3-(difluoromethoxy)-2-[(2-morpholinoacetyl)-amino]propanoyl]amino]propanoyl]amino]-N-[(1S)-3-methyl-1-[(2R)-2-methyloxirane-2-carbonyl]butyl]-3-phenyl-propanamide]	−7.52	>−4.00	−6.73	−7.70	>−4.00	−6.97	<−8.00	>−4.00	>−4.00	−7.90	−7.24	−7.57	−7.65	>−4.00	−7.02
CC(C)C[C@H](NC(=O)[C@H](COC(F)F)NC(=O)[C@H](COC(F)F)NC(=O)[C@H](COC(F)F)NC(=O)CN1CCOCC1)C(=O)[C@@]1(C)CO1 [Example 17, (2S)-3-(difluoromethoxy)-N-[(1S)-1-(difluoromethoxymethyl)-2-[[(1S)-1-(difluoro-methoxymethyl)-2-[[(1S)-3-methyl-1-[(2R)-2-methyloxirane-2-carbonyl]butyl]amino]-2-oxo-ethyl]amino]-2-oxo-ethyl]-2-[(2-mor-pholinoacetyl)amino]-propanamide]	−7.14	−5.39	−6.42	−7.15	>−4.00	−5.27	−7.57	>−4.00	>−4.00	−7.42	−6.29	−6.81	−7.14	>−4.00	-6.15
